The test system of assay [1] is p-IKKα levels in L363 (NIK translocated multiple myeloma) cells. Description: Effect of compounds on p-IKKα levels in L363 cells (AlphaLISA SureFire Ultra). In kind it is cell-based. Particulars: Homo sapiens, L-363; L363 cells, BAFF stimulated, MG132, 6 h; average of values; read-out: Assay 2 IC50. Put shortly:
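Phospho-IKKα (Ser 176/180) was quantified by AlphaLISA in lysed L363 cells after 6 h compound exposure (0.3% DMSO, 11 points, 1:3) alongside 250 ng/ml BAFF and 10 uM MG132, following overnight BAFF priming in low-serum DMEM. Duplicate curves were scaled between BAFF/DMSO/MG132 and unstimulated DMSO wells, then fitted sigmoidally for IC50.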

Assay [2] has as its target Recombinant Human NF-Kappab-Inducing Kinase (NIK/MAP3K14) (Homo sapiens, UniProt Q99558). Nature of the assay: Inhibition of auto-phosphorylation of recombinant human NIK/MAP3K14 (AlphaScreen). In kind it is biochemical. Particulars: NIK/MAP3K14 auto-phosphorylation, 5 microM ATP, 1 nM enzyme, 2 h at 25° C.; average of values; read-out: Assay 1 IC50. A digest of the protocol: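 AlphaScreen read-out used anti-phospho-IKK Ser176/180 antibody after 2 h, 25 °C incubation of compound, 1 nM GST-NIK and 5 µM ATP (final DMSO 0.7%). Percent inhibition referenced to high (enzyme) and low (no enzyme, no ATP) controls; sigmoidal curve fitting gave IC50.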

Some results are limits rather than exact numbers.

The term IC50 denotes the point on the concentration scale where inhibition reaches its midpoint.

Sequence of Recombinant Human NF-Kappab-Inducing Kinase (NIK/MAP3K14) (Q99558 whole entry): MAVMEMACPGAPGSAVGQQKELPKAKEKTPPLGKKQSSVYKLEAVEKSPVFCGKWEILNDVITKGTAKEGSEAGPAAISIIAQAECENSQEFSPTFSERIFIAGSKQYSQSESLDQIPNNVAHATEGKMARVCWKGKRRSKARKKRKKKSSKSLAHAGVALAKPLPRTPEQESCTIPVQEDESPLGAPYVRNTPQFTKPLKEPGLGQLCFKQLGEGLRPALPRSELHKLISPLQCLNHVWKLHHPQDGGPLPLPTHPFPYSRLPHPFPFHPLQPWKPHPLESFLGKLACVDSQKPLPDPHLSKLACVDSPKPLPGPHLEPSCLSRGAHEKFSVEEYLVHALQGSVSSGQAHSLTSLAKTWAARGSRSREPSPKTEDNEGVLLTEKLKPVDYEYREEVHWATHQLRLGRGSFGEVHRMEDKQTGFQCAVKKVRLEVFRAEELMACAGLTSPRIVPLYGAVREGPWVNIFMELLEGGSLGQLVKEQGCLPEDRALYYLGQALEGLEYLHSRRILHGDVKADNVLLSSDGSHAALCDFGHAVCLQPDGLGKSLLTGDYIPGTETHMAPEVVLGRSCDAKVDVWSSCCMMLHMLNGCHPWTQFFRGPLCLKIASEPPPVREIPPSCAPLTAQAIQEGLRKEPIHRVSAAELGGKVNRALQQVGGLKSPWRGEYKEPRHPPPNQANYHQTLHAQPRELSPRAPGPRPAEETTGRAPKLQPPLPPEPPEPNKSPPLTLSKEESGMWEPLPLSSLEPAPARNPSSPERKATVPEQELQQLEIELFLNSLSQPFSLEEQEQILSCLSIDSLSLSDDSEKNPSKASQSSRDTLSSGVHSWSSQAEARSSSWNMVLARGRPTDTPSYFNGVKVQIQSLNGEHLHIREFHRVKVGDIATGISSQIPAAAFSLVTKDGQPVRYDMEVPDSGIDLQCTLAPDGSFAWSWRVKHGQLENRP

For the compound `CN1CC[C@@](O)(c2cc(-c3cccc(-c4nc(C(N)=O)c5n4CCN(CCC(F)(F)F)C5)c3)no2)C1=O` [Example 232, (R)-3-(3-(5-(3-Hydroxy-1-methyl-2-oxopyrrolidin-3-yl)isoxazol-3-yl)phenyl)-7-(3,3,3-trifluoropropyl)-5,6,7,8-tetrahydroimidazo[1,5-a]pyrazine-1-carboxamide], the IC50 in assay [1] and in assay [2] was > 501 nM throughout.

Turning to `Cc1cc(-c2cccc(-c3cc([C@]4(O)CCN(C)C4=O)on3)c2)nc2c(N)ncnc12` [Example 26, (R)-3-(3-(3-(4-Amino-8-methylpyrido[3,2-d]pyrimidin-6-yl)phenyl)isoxazol-5-yl)-3-hydroxy-1-methylpyrrolidin-2-one], the IC50 in assay [1] and in assay [2] was < 100 nM each time.

Turning to `COc1ncc(-c2cc(C(N)=O)nc(-c3cccc(-c4cc([C@]5(O)CCN(C)C5=O)on4)c3)c2)s1` [Example 191, (R)-6-(3-(5-(3-Hydroxy-1-methyl-2-oxopyrrolidin-3-yl)isoxazol-3-yl)phenyl)-4-(2-methoxythiazol-5-yl)picolinamide], the figures for the half-inhibitory concentration (IC50) in assay [1] and in assay [2] were 100 to 500 nM and < 100 nM, respectively.

`CN1CC[C@@](O)(c2cc(-c3cccc(-c4nc(C(N)=O)n5c4CCCC5)c3)no2)C1=O` [Example 93, (R)-1-(3-(5-(3-Hydroxy-1-methyl-2-oxopyrrolidin-3-yl)isoxazol-3-yl)phenyl)-5,6,7,8-tetrahydroimidazo[1,5-a]pyridine-3-carboxamide]: the 50% inhibitory concentration (IC50) in assay [1] and in assay [2] was < 100 nM throughout.

In the case of `CN1CC[C@@](O)(c2cc(-c3cccc(-c4cc(C(F)(F)F)c(N)c(C(N)=O)n4)c3)no2)C1=O` [Example 50, (R)-3-Amino-6-(3-(5-(3-hydroxy-1-methyl-2-oxopyrrolidin-3-yl)isoxazol-3-yl)phenyl)-4-(trifluoromethyl)picolinamide], the IC50 in assay [1] and in assay [2] was < 100 nM in each case.

Turning to `CN1CC[C@](O)(c2cc(-c3cccc(-c4nc5c(c(C(N)=O)n4)[C@H]4CC[C@@H](C5)O4)c3)no2)C1=O` [Example 172, (5R,8S)-2-(3-(5-((S)-3-Hydroxy-1-methyl-2-oxopyrrolidin-3-yl)isoxazol-3-yl)phenyl)-6,7,8,9-tetrahydro-5H-5,8-epoxycyclohepta[d]pyrimidine-4-carboxamide], the half-maximal inhibitory concentration (IC50) in assay [1] and in assay [2] was > 501 nM each time.

`CN1CC[C@@](O)(c2cc(-c3cccc(-c4cc(-c5ccnn5C5CC5)cc(C(N)=O)n4)c3)no2)C1=O` [Example 185, (R)-4-(1-Cyclopropyl-1H-pyrazol-5-yl)-6-(3-(5-(3-hydroxy-1-methyl-2-oxopyrrolidin-3-yl)isoxazol-3-yl)phenyl)picolinamide]: the results for the IC50 in assay [1] and in assay [2] were > 501 nM and < 100 nM, respectively.

With `[2H]c1nc(N)c2nc(-c3cccc(-c4cnc([C@@]5(O)CCN(C)C5=O)s4)c3)ccc2n1` (single isomer, unassigned) [Example 32], the half-maximal inhibitory concentration (IC50) in assay [1] is > 501 nM; in assay [2], < 100 nM.

With `CN1CC(F)(F)[C@@](O)(c2cc(-c3ccc(F)c(-c4nc(C(N)=O)c5[nH]ccc5n4)c3)no2)C1=O` [Example 140, (R)-2-(5-(5-(4,4-Difluoro-3-hydroxy-1-methyl-2-oxopyrrolidin-3-yl)isoxazol-3-yl)-2-fluorophenyl)-5H-pyrrolo[3,2-d]pyrimidine-4-carboxamide], the half-inhibitory concentration (IC50) in assay [1] and in assay [2] was < 100 nM each time.

In the case of `CN1CC[C@@](O)(c2cc(-c3cccc(-c4ccc5nccn5c4)c3)no2)C1=O` [Example 71, (R)-3-Hydroxy-3-(3-(3-(imidazo[1,2-a]pyridin-6-yl)phenyl)isoxazol-5-yl)-1-methylpyrrolidin-2-one], the IC50 in assay [1] and in assay [2] was > 501 nM each time.

Consider `COCCn1cc(-c2cc(C(N)=O)nc(-c3cccc(-c4cc([C@]5(O)CCN(C)C5=O)on4)c3)c2)cn1` [Example 189, (R)-6-(3-(5-(3-Hydroxy-1-methyl-2-oxopyrrolidin-3-yl)isoxazol-3-yl)phenyl)-4-(1-(2-methoxyethyl)-1H-pyrazol-4-yl)picolinamide], for which the figures for the IC50 in assay [1] and in assay [2] were 100 to 500 nM and < 100 nM, respectively.

Consider `CN1CC[C@@](O)(c2cc(-c3cccc(-c4ncc(NCC5COC5)c(C(N)=O)n4)c3)no2)C1=O` [Example 107, (R)-2-(3-(5-(3-Hydroxy-1-methyl-2-oxopyrrolidin-3-yl)isoxazol-3-yl)phenyl)-5-((oxetan-3-ylmethyl)amino)pyrimidine-4-carboxamide], for which the IC50 in assay [1] and in assay [2] was < 100 nM throughout.

Turning to `CN1CC[C@@](O)(c2cc(-c3cccc(-c4cc5[nH]cnc5c(C(N)=O)n4)c3)no2)C1=O` [Example 97, (R)-6-(3-(5-(3-Hydroxy-1-methyl-2-oxopyrrolidin-3-yl)isoxazol-3-yl)phenyl)-1H-imidazo[4,5-c]pyridine-4-carboxamide], the half-inhibitory concentration (IC50) in assay [1] is 100 to 500 nM; in assay [2], < 100 nM.

With `CN1CC[C@@](O)(c2cc(-c3cccc(-c4ncc(Nc5cnn(CC(F)(F)F)c5)c(C(N)=O)n4)c3)no2)C1=O` [Example 145, (R)-2-(3-(5-(3-Hydroxy-1-methyl-2-oxopyrrolidin-3-yl)isoxazol-3-yl)phenyl)-5-((1-(2,2,2-trifluoroethyl)-1H-pyrazol-4-yl)amino)pyrimidine-4-carboxamide], the IC50 in assay [1] and in assay [2] was < 100 nM each time.

Turning to `CN1CC[C@@](O)(c2cc(-c3cccc(-c4ccc(N)c(C(N)=O)n4)c3)no2)C1=O` [Example 7, (R)-3-Amino-6-(3-(5-(3-hydroxy-1-methyl-2-oxopyrrolidin-3-yl)isoxazol-3-yl)phenyl)picolinamide], the IC50 in assay [1] and in assay [2] was < 100 nM throughout.

Turning to `COc1cc(-c2cc([C@]3(O)CCN(C)C3=O)on2)cc(-c2cccc(C(N)=O)n2)c1` [Example 153, (R)-6-(3-(5-(3-Hydroxy-1-methyl-2-oxopyrrolidin-3-yl)isoxazol-3-yl)-5-methoxyphenyl)picolinamide], the IC50 in assay [1] was > 501 nM; in assay [2], < 100 nM.

`CN1CC[C@@](O)(c2cc(-c3cccc(-c4nc(C(N)=O)c(Nc5cnn(C)c5)s4)c3)no2)C1=O` [Example 211, (R)-2-(3-(5-(3-Hydroxy-1-methyl-2-oxopyrrolidin-3-yl)isoxazol-3-yl)phenyl)-5-((1-methyl-1H-pyrazol-4-yl)amino)thiazole-4-carboxamide]: the IC50 in assay [1] and in assay [2] was < 100 nM each time.

Turning to `Cc1nc(N)c2nc(-c3cccc(-c4cc([C@]5(O)CCN(C)C5=O)on4)c3)ccc2n1` [Example 1, (R)-3-(3-(3-(4-Amino-2-methylpyrido[3,2-d]pyrimidin-6-yl)phenyl)isoxazol-5-yl)-3-hydroxy-1-methylpyrrolidin-2-one], the IC50 in assay [1] is 100 to 500 nM; in assay [2], < 100 nM.

As for `CN1CC[C@@](O)(c2cc(-c3cccc(-c4nc(C(N)=O)cs4)c3)no2)C1=O` [Example 204, (R)-2-(3-(5-(3-Hydroxy-1-methyl-2-oxopyrrolidin-3-yl)isoxazol-3-yl)phenyl)thiazole-4-carboxamide], the figures for the half-inhibitory concentration (IC50) in assay [1] and in assay [2] were > 501 nM and < 100 nM, respectively.

With `CN1CCC(O)(c2cc(-c3cccc(-n4nc(C(N)=O)c5ccccc54)c3)on2)C1=O` (racemic) [Example 167, (R,S)-1-(3-(3-(3-Hydroxy-1-methyl-2-oxopyrrolidin-3-yl)isoxazol-5-yl)phenyl)-1H-indazole-3-carboxamide], the results for the IC50 in assay [1] and in assay [2] were 100 to 500 nM and < 100 nM, respectively.

With `CN1CC[C@@](O)(c2cc(-c3cccc(-c4cc(N5CC(F)(F)C5)cc(C(N)=O)n4)c3)no2)C1=O` [Example 100, (R)-4-(3,3-Difluoroazetidin-1-yl)-6-(3-(5-(3-hydroxy-1-methyl-2-oxopyrrolidin-3-yl)isoxazol-3-yl)phenyl)picolinamide], the half-inhibitory concentration (IC50) is > 501 nM in assay [1] and < 100 nM in assay [2].

With `Cc1cc(-c2cccc(-c3cc([C@]4(O)CCN(C)C4=O)on3)c2)nc(C(N)=O)c1N` [Example 45, (R)-3-Amino-6-(3-(5-(3-hydroxy-1-methyl-2-oxopyrrolidin-3-yl)isoxazol-3-yl)phenyl)-4-methylpicolinamide], the IC50 in assay [1] and in assay [2] was < 100 nM throughout.

`CN1CC[C@@](O)(c2cc(-c3cccc(-c4ccc5c(n4)c(N)nn5C)c3)no2)C1=O` [Example 5, (R)-3-(3-(3-(3-Amino-1-methyl-1H-pyrazolo[4,3-b]pyridin-5-yl)phenyl)isoxazol-5-yl)-3-hydroxy-1-methylpyrrolidin-2-one]: the IC50 in assay [1] is > 501 nM; in assay [2], 100 to 500 nM.

`CN1CC[C@](O)(c2ncc(-c3cccc(-c4cccc(C(N)=O)n4)c3)s2)C1=O` (single isomer, unassigned) [Example 28]: the IC50 in assay [1] was > 501 nM; in assay [2] it was 100 to 500 nM.

In the case of `CN1CC[C@@](O)(c2cc(-c3cccc(-c4nc(C(N)=O)n5ccncc45)c3)no2)C1=O` [Example 109, (R)-1-(3-(5-(3-Hydroxy-1-methyl-2-oxopyrrolidin-3-yl)isoxazol-3-yl)phenyl)imidazo[1,5-a]pyrazine-3-carboxamide], the 50% inhibitory concentration (IC50) is 100 to 500 nM in assay [1] and < 100 nM in assay [2].

For `CN1CC[C@@](O)(c2cn(-c3cccc(-c4cccc(C(N)=O)n4)c3)nn2)C1=O` [Example 14, (R)-6-(3-(4-(3-Hydroxy-1-methyl-2-oxopyrrolidin-3-yl)-1H-1,2,3-triazol-1-yl)phenyl)picolinamide], the values for the 50% inhibitory concentration (IC50) in assay [1] and in assay [2] were > 501 nM and < 100 nM, respectively.

The record behind these values is US20250282785A1, “PYRROLIDINONE DERIVATIVES AS INHIBITORS OF NF KAPPA B INDUCING KINASE” (priority 2022, published 2025).
